Data published in patent US11771715B2 (Orna Therapeutics, Inc., priority 2019, dated 2023).

Tests used:
[1] = Table 3, representative compounds of Formula (III); cited from earlier work
1C1C7 cells [2] = test: 5′ UTR variants in 1C1C7 cells (Ex. 54); assay type: cell-based; settings: CK IRES with 5′ UTR variants
Source text: This example describes modifications of circular RNAs by inserting 5′ UTR variants. […] 1C1C7 cells were transfected with the circular RNAs.

1C1C7 cells [3] = test: Expression of anti-murine CD19 CAR by IRES variant in lipotransfected 1C1C7 cells (Ex. 41); assay type: cell-based; settings: 24 hours after lipotransfection
Description: After 24 hours, 1C1C7 cells were incubated with His-tagged recombinant murine CD19 (Sino Biological) protein, then stained with a secondary anti-His antibody. Afterwards, the cells were analyzed via flow cytometry.

HEK293 cells = test: GLuc luminescence by IRES in HEK293 cells (Ex. 8A); settings: 24 hours, 100 ng circularization reaction
1C1C7 cells [4] = test: GLuc luminescence and functional stability by IRES in 1C1C7 cells (Ex. 8A); settings: 24 hours

For `CCCCCCCCCCCCC(CCCCCCCCCC)C(=O)OCCCCCCN(CCCCO)CCCCOC(=O)C(CCCCCCCCCC)CCCCCCCCCCCC` (stereo not drawn) [III-27], the pKa [1] is given as 5.77.

In the case of “UTR2: 5′ UTR variant: canonical Kozak with "a 36-nucleotide unstructured/low GC spacer sequence" added (DNA AATAAGAGAGAAAAGAAGAGTAAGAAGAAATATAAGAGCCACC; expressed or natural sequence)”, the “translation, luminescence” value (1C1C7 cells [2]) is reported as “more effective”.

With “UTR3: 5′ UTR variant: "a higher-GC/structured spacer with a kozak sequence" (DNA CGAACTAGTATTCTTCTGGTCCCCACAGACTCAGAGAGAACCCGCCACC; expressed or natural sequence)” the “translation, luminescence” value (1C1C7 cells [2]) was “did not show the same benefit”.

B1: parabovirus: "IRES sourced from the indicated virus" in circular RNA encoding anti-murine CD19 CAR (nucleic acid, listed as Parabovirus sp.)
DNA: TGAACCGTTACGCACCACTCAGTTGGTGTTTGGTGGCACCAATGATGGAACAAAAGGCTACACCACTTGGGCTACGGCCCGCGCCACCTTGTGGCGCAAAGACATTAGAAGAATAGCATACCGCCCACTAGGGCCCTGCAGCCAGCAGGGTAACGGGCAAGCACTTCTGTCTCCCCGGTAGAACGGTATAGGCTGTACCCACGGCCGAAAACTGAACTATCGTTACCCGACTCCGTACTTCGCAAAGCTTAGTAGGAAACTGGAAAGTTCGAGTTATTGACCCGGAGTGTTCCCCCCACTCCAGAAACGCGTGATGAGGGTTGCCACCCCGACCATGGCGACATGGTGGGCATCCCTGCGCTGGCACGCGGCCTCTAAGAGGATAACTCGCTCCTACTGGTAACCGAAGAGCCCCGTGAGCTACGGTTTATTCCTCCGCCTCCCTGAATGCGGCTAATCCTAACCCATGAGCAGTTGCCATAGATCCATATGGTGGACTGTCGTAACGCGTAAGTTGTGGGCGGAACCGACTACTTTGGGATGGCGTGTTTCCTTGTTTTCTCCATTTGTTGTTGTATGGTGACAAGTTATAGATCTCGATCTATAGCGTTTCTTGAGAGATTTCCAAACATTTATTCAAGTCGTACAATTCTTGTGTTTAAGCAGTACAGTGTAAGG
In the case of B1, the “expression of anti-mouse CD19 CAR” value (1C1C7 cells [3]) is reported as “capable of driving expression”.

B2: Crohivirus B IRES: one of the "selected IRES sequences" modified (e.g., truncated); "SEQ ID NOs: 348-389" (nucleic acid)
DNA: GTATAAGAGACAGGTGTTTGCCTTGTCTTCGGACTGGCATCTTGGGACCAACCCCCCTTTTCCCCAGCCATGGGTTAAATGGCAATAAAGGACGTAACAACTTTGTAACCATTAAGCTTTGTAATTTTGTAACCACTAAGCTTTGTGCACATAATGTAACCATCAAGCTTGTTAGTCCCAGCAGGAGGTTTGCATGCTTGTAGCCGAAATGGGGCTCGACCCCCCATAGTAGGATACTTGATTTTGCATTCCATTGTGGACCTGCAAACTCTACACATAGAGGCTTTGTCTTGCATCTAAACACCTGAGTACAGTGTGTACCTAGACCCTATAGTACGGGAGGACCGTTTGTTTCCTCAATAACCCTACATAATAGGCTAGGTGGGCATGCCCAATTTGCAAGATCCCAGACTGGGGGTCGGTCTGGGCAGGGTTAGATCCCTGTTAGCTACTGCCTGATAGGGTGGTGCTCAACCATGTGTAGTTTAAATTGAGCTGTTCATATACC
modifications: Crohivirus B
For B2, the luminescence in supernatant (HEK293 cells) was “produced the highest luminescence”.

B3: Salivirus A SZ-1 (nucleic acid)
DNA: TCTGTCCTCACCCCATCTTCCCTTCTTTCCTGCACCGTTACGCTTACTCGCATGTGCATTGAGTGGTGCACGTGCTTGAACAAACAGCTACACTCACATGGGGGCGGGTTTTCCCGCCCTGCGGCCTCTCGCGAGGCCCACCCCTCCCCTTCCTCCCATAACTACAGTGCTTTGGTAGGTAAGCATCCTGATCCCCCGCGGAAGCTGCTCACGTGGCAACTGTGGGGACCCAGACAGGTTATCAAAGGCACCCGGTCTTTCCGCCTTCAGGAGTATCCCTGCTAGTGAATTCTAGTAGGGCTCTGCTTGGTGCCAACCTCCCCCAAATGCGCGCTGCGGGAGTGCTCTTCCCCAACTCACCCTAGTATCCTCTCATGTGTGTGCTTGGTCAGCATATCTGAGACGATGTTCCGCTGTCCCAGACCAGTCCAGTAATGGACGGGCCAGTGTGCGTAGTCGTCTTCCGGCTTGTCCGGCGCATGTTTGGTGAACCGGTGGGGTAAGGTTGGTGTGCCCAACGCCCGTACTTTGGTGATACCTCAAGACCACCCAGGAATGCCAGGGAGGTACCCCGCTTCACAGCGGGATCTGACCCTGGGCTAATTGTCTACGGTGGTTCTTCTTGCTTCCACTTCTTTCTACTGTTCATG
For B3, the luminescence in supernatant (1C1C7 cells [4]) was “produced high luminescence”.
